Laboratory results from a melting point compilation (Tetko et al.; mined from patent text by program, amines drawn as free bases though some values may be those of a salt).

Point of comparison: `Cn1cnnc1C(N)(c1ccc(I)cc1)c1ccc2c(c1)c(-c1cccc(Cl)c1)nc1nnnn12` (centres undefined), melting point 238 °C. Against it:
- Cn1cc(C2=C(c3cn(C)c4cc([N+](=O)[O-])ccc34)C(=O)N(CO)C2=O)c2ccccc21 — lower, 209 to 211 °C
- COc1cc(OC)c(C)c(C(=O)OCC(Cl)(Cl)Cl)c1C — lower, 129 °C
- COC(=O)c1cc(OCc2ccccc2)c(OCc2ccccc2)c(OCc2ccccc2)c1 — lower, 102 to 103 °C
- CN(C)c1ccc(CN2C(=O)C3(COc4cc5c(cc43)OCCO5)c3ccccc32)cn1 (centres undefined) — lower, 93 to 95 °C
- COc1ccc(Nc2nc(=O)cc(N)n2-c2ccccc2)cc1 — lower, 213 to 216 °C
- CC(C)n1c(C=O)c(-c2ccc(F)cc2)c(-c2ccc(F)cc2)c1C(=O)NCc1ccc(S(C)(=O)=O)cc1 — lower, 203 to 204 °C
- CCC1CC2C3CCC4=CC(=O)CCC4C3CCC2(C)C1OC(=O)CBr (centres undefined) — lower, 118 to 120 °C
- CC(=O)OCc1nccc(OCCCOc2ccc3ncc([N+](=O)[O-])n3n2)c1C — lower, 148 to 151 °C
- CC(Oc1ccc2oc3cc(Cl)ccc3c2c1)C(=O)O (centres undefined) — lower, 170 to 172 °C
- CN1CC(Cn2cncn2)CC2c3cccc4[nH]cc(c34)CC21 (centres undefined) — higher, 245 to 253 °C
- C=C(C)CN1C[C@H](C)Nc2c(cc(Cl)cc2[N+](=O)[O-])C1=O — lower, 66.5 °C
- CCCCc1cn(CC2OC(n3cnc4c(NCc5ccc(OC)cc5)ncnc43)C(O)C2O)nn1 (centres undefined) — lower, 105 °C
- CCN(CC)CCN1C(=O)c2cc(Cl)c(S(N)(=O)=O)cc2C1=O — lower, 152 to 154 °C
- CCOC(=O)Cc1cc2c(N=C3SC[C@@H]4Cc5ccccc5CN34)cccc2cn1 — lower, 112 °C
- OC12N=C(c3ccccc3)SC1(Br)Cc1cc(Cl)ccc12 (centres undefined) — lower, 148 °C
- C=CCOc1ccc(OC2CCCCO2)c2c1CCC(=O)N2 (centres undefined) — lower, 113 to 115 °C
- c1ccc(C2=c3cc4c(cc3Oc3ccccc32)=C(c2ccccc2)c2ccccc2O4)cc1 — higher, 419 °C
- COCC(C)(COC)C(=O)O[C@H]1C[C@H](O)C=C2C=C[C@H](C)[C@H](CC[C@@H]3C[C@@H](O)CC(=O)O3)[C@H]21 — lower, 122 to 123 °C
- CCCCc1nc(CO)c(S(=O)CC)n1Cc1ccc(-c2ccccc2C(=O)O)cc1 (centres undefined) — higher, 240 °C
- CCOC(=O)CS(=O)CCNC(=O)OCC (centres undefined) — lower, 73.8 to 77 °C
- CCCc1nn(-c2ccc(C(F)(F)F)cn2)cc1CCCOc1c(CC)cnn1CC(=O)O — lower, 135 to 136 °C
- O=c1c(CCCc2cccnc2)cc2cccnc2n1-c1ccc2nsnc2c1 — lower, 174 °C
- CC(C)(C)OC(=O)N(N)Cc1ccc(-c2ccccc2)cc1 — lower, 84 to 85 °C
- Cc1nc2n(c(=O)c1CCN1CCC(C(=O)c3ccc(F)cc3)CC1)CCCS2 — lower, 165 °C
- Cc1ccc(S(=O)(=O)OCC2Cc3ccc(O)cc3O2)cc1 (centres undefined) — lower, 107 to 110 °C
- CC(C(=O)O)c1ccc2c(c1)C(=O)Cc1ccc(Cl)cc1S2 (centres undefined) — lower, 142 to 143 °C
- O=C1N(C2=NCCS2)c2ccccc2C12SCCS2 — lower, 154 to 157 °C
- CC1(C)CC(=C(c2ccc(O)cc2)c2ccc(F)cc2)CC(C)(C)C1 — lower, 134 to 135 °C
- Clc1cc(Cl)c2c(c1)CCC(N1CCCC1)=C2 — lower, 84.5 to 85.5 °C
- CCN(CC)S(=O)(=O)c1ccc2c(c1)S(=O)(=O)NC(C1CCCCC1)N2 (centres undefined) — lower, 207 to 209 °C
- CCS(=O)(=O)c1ccc2c(c1)nc(CC(C)(C)C)n2CCOC(F)(F)F — lower, 133 °C
- Oc1ccc(-c2cc3c(O)cc(O)cc3o2)cc1 — lower, 216 to 217 °C
- Cc1cc2c(cc1N)C(C)(C)CCC2(C)C — lower, 94 to 95 °C
- CCn1ncc2c(O)c3c(nc21)C(=O)c1ccccc1CC3 — lower, 190 to 192 °C
- O=C1N(Cc2ccccc2C(F)(F)F)c2ccccc2C12COc1cc3[nH]ncc3cc12 (centres undefined) — lower, 124 to 126 °C
- O=c1c2ccccc2nc(-c2sc(Nc3ccc(Cl)cc3)nc2-c2ccccc2)n1-c1ccc(Cl)cc1 — higher, 271 to 272 °C
- NC(=O)c1c(N)n(C2CCCC2)c2nc(Nc3ccc(N4CCOCC4)cc3)ncc2c1=O — higher, 265 °C
- CC(C)(C)C(=O)C(F)n1cncn1 (centres undefined) — lower, 54 to 55 °C
- O=C(O)CN(C(=O)CCS)[C@H]1CC[C@H](c2ccccc2)CC1 — lower, 125 to 130 °C
- CNC(=O)CN1CCC(C(O)(c2ccc(F)cc2)c2ccc(F)cc2)CC1 — lower, 122 to 124 °C
- CC(C)(C)OC(=O)c1cccc(-c2nc(=O)c3ccccc3s2)n1 — lower, 185 to 186 °C
- C[C@@H](O)Cn1ccc2cc(Cl)c(F)cc21 — lower, 108 to 110 °C
- CC[C@H](C1CC1)n1cc(Cl)nc(N2CCc3cc(OC)cc(C)c32)c1=O — lower, 156 to 158 °C
- OCCSc1cccc2nccn12 — lower, 99 to 100 °C
- CNC(=O)CNc1c(C)cccc1C — lower, 52 to 54 °C
- COc1ccc(NC(=O)c2ccccc2OC)cc1 — lower, 49.5 to 51.2 °C
- CN1CC2CN(C)CC(C1)C2OC(=O)c1ccccc1 (centres undefined) — lower, 100 to 102 °C
- Cc1oc(-c2ccccc2)nc1CCOc1ccc(CC(C(=O)O)c2ccccc2)cc1 (centres undefined) — lower, 124 to 125 °C
- CCCc1c(OCCCCCOc2ccc(CCC(=O)O)cc2CCC(=O)O)ccc2c1OCCC2=O — lower, 108 to 109 °C
- COc1ccc(C(=NOC(C)=O)c2ccccc2F)c(O)c1C — lower, 83 to 86 °C
- c1cc(-c2ccc(OCCCN3CCCC3)cc2)ccc1OCCCN1CCCCC1 — lower, 105 to 108 °C
- N#Cc1ccc(NC(=O)CCc2ccc(O)cc2)cc1 — lower, 169 to 172 °C
- CC(C)n1c(=O)n(CC2CNCCO2)c2ccccc21 (centres undefined) — lower, 95 °C
- CN(CCCCCCCCC(=O)O)c1cnc(-c2ccccc2)c(-c2ccccc2)n1 — lower, 103 to 105 °C
- CC1CC(C)CN(C(=O)C2Cc3ccccc3N2C(=O)OC(C)(C)C)C1 (centres undefined) — lower, 148 to 149 °C
- CC(C)=CCCC(C)=CCS(=O)c1ccc2ccccc2c1 (centres undefined) — lower, 74 to 76 °C
- NS(=O)(=O)c1ccc(-n2nc(C(F)(F)F)c(C3CC3)c2-c2ccccc2)cc1 — lower, 173 to 174 °C
- CC(C)C[C@H](N[C@H](CCN1C(=O)c2cc3ccccc3cc2C1=O)C(=O)OC(C)(C)C)C(=O)O — lower, 168 to 169 °C
- O=C(NC[C@H]1CN(c2cc(F)c(N3CCC(n4cnnn4)CC3)c(F)c2)C(=O)O1)C1CC1 — lower, 162 to 164 °C
- CCOC(=O)c1ncc2c(c1COC)c1c(OCc3ccccc3)cccc1n2S(=O)(=O)c1ccc(C)cc1 — lower, 149 to 150 °C
- COc1ccccc1C=C1N=C(C)OC1=O — lower, 151 to 153 °C
- O=C(O)CCCCCCOc1ccc(-c2ccccc2)cc1 — lower, 78 to 79 °C
- CCC1(O)CC(=O)OCc2c1cc1n(c2=O)Cc2cc3cccc(F)c3nc2-1 (centres undefined) — higher, > 250 °C
- Cc1nnc(C(=O)CCCCCCOc2ccc(OCc3ccccc3)cc2)o1 — lower, 118 to 120 °C
- CN(Cc1cc(-c2ccc(CC3SC(=O)NC3=O)cc2)cs1)C(=O)c1ccccc1 (centres undefined) — lower, 134 °C
- OCCn1nnnc1S — lower, 135 to 137 °C
- Cc1cc2c(cc1O)OC[C@@H](N1CCC(O)(c3ccc(F)cc3)CC1)[C@H]2O (relative stereo) — lower, 174 °C
- O=S(=O)(CCCCl)Nc1ccc(Oc2cccc3cccnc23)cc1 — lower, 161 to 162 °C
- Cc1cccnc1COc1nn2c(-c3ccccc3)nnc2cc1C12CCC(CC1)C2 — lower, 214 to 216 °C
- Cc1cccc(C)c1Sc1c(O)cc(-c2ccccc2)oc1=O — higher, 248 to 249 °C
- COc1cc(C(=O)Nc2c(Cl)cc3c(Br)n[nH]c3c2C(=O)NC2(C3CC3)CC2)n(-c2ncccc2Cl)n1 — lower, 190 to 194 °C
- O=C(SC(SC(=O)c1ccccc1)C(=O)O)c1ccccc1 — lower, 82 to 83 °C
- O=C(Nc1cccc(O)c1)C(F)(F)F — lower, 133 to 135 °C
- Cc1cccc2ncn(-c3nnn[nH]3)c(=O)c12 — higher, 280 to 281 °C
- O=C1CCC(c2ccccc2)(c2ccccc2)C2CN(C(Cc3ccccc3)=NCc3ccco3)CC12 (centres undefined) — lower, 128 °C
- Cc1c(C(=O)c2ccccc2Cl)c(NC(=O)CI)cn1C — lower, 155 to 157 °C
- CC(C)(C)OC(=O)NCc1cc(C(=O)O)ccn1 — lower, 207 °C
- CCc1noc(-c2ncc3[nH]c4c(c3c2COC)CCCC4)n1 — lower, 197 to 199 °C
- Cc1cc(C)c([Si]2(c3c(C)cc(C)cc3C)C(=O)C(c3ccccc3)=C(c3ccccc3)C(=O)[Si]2(c2c(C)cc(C)cc2C)c2c(C)cc(C)cc2C)c(C)c1 — lower, 67 to 68 °C
- OCc1cc2c(N=C3SC[C@@H]4Cc5ccccc5CN34)cccc2cn1 — lower, 210 °C
- O=C(O)C1CCCCC1(O)C(=O)c1ccccc1 (centres undefined) — lower, 165 to 167 °C
- CCOC(=O)c1c[nH]c2oc3ccccc3c(=O)c2c1=O — lower, 174 to 175 °C
- N#Cc1ccc(O)c(C2(C(=O)O)CCCC2)c1 — lower, 153 to 154 °C
- COCCn1cc(-c2ccc3nnn(Cc4ccc5ncccc5c4)c3n2)cn1 — lower, 162 to 164 °C
- CCN1C(=O)Cc2cc(OCc3ccccc3C(=O)O)ccc21 — lower, 180 to 181 °C
- Cc1ccc(-c2cccn2-c2ccc(S(N)(=O)=O)cc2)cc1 — lower, 183 to 184 °C
- O=Cn1cc(Cl)c(-c2cccc(Cl)c2[N+](=O)[O-])c1 — lower, 138 °C
- CN(C)CCn1cnc2cnc3ccccc3c21 — higher, > 250 °C
- CCCCCCCCCc1c(C(=O)O)sc2cc(Br)ccc12 — lower, 126 to 127 °C
- Cc1nn(C)c(N)c1C(=O)Nc1cccc(Cl)c1 — lower, 87 to 92 °C
- Cn1c(CC(=O)O)c(C(=O)O)c(Br)c1C(=O)c1ccc(Cl)cc1 — higher, 261 to 263 °C
- Cc1cn2c(n1)-c1ccccc1Nc1ccccc1-2 — lower, 232 to 236 °C
- COc1ccc(C2(C#N)CC2)cc1OC1CCCC1 — lower, 80.4 °C
- O=c1c(-c2ccc(F)cc2)c(-c2ccc(SC(F)(F)F)cc2)cnn1Cc1ccccc1 — lower, 145 to 146 °C
- COC(=O)c1ccc(-c2nnc(-c3ccc(C(F)(F)F)cc3)o2)c(N)c1 — not separable, 237 to 238 °C
- CCC(C#N)c1nsc2ccc(-n3c(=O)cc(C(F)(F)F)n(C)c3=O)cc12 (centres undefined) — lower, 107 to 109 °C
- CC(=O)N1CCC(O)(c2ccccc2C)CC1 — lower, 145 to 146 °C
- C=CCN(c1ccccc1C=C(SC)S(C)=O)c1c(Cl)cccc1Cl (centres undefined) — lower, 104 to 107 °C
